Article PMC10571995, “Near-Infrared Imaging of Colonic Adenomas In Vivo Using Orthotopic Human Organoids for Early Cancer Detection” (Cancers, 2023)
Residues, ends and D or L forms follow the SMILES beside them. *: point of attachment. X2 = CC1(C)C(/C=C/C2=C(Oc3ccc(S(=O)(=O)O)cc3)C(=C/C=C3/N(CCCCCC(=O)NCCN4C(=O)CC(*)C4=O)c4ccc(S(=O)(=O)O)cc4C3(C)C)/CCC2)=[N+](CCCCS(=O)(=O)[O-])c2ccc(S(=O)(=O)O)cc21; X1 = CC1(C)C(=CC=C2CCCC(C=CC3=[N+](CCCCS(=O)(=O)[O-])c4ccc(S(=O)(=O)O)cc4C3(C)C)=C2Oc2ccc(S(=O)(=O)O)cc2)N(CCCCCC(=O)NCCN2C(=O)CC(*)C2=O)c2ccc(S(=O)(=O)O)cc21

What was measured:
cMet [1] = molecular target: T1, cMet (Homo sapiens, UniProt P08581); test: In vivo NIR fluorescence endoscopy of patient-derived colonoids implanted orthotopically in NSG mouse colon; conditions: NSG mice, 1 h post-injection, n = 6 mice
T1 construct: Human colonoids provide clinically relevant levels of target expression; endogenous in cells; host or cells: Patient-derived human colonoids (cMet-high adenoma, cMet-low adenoma, normal), either cultured or implanted orthotopically in NSG mouse colon
T1 sequence (P08581 25-1390): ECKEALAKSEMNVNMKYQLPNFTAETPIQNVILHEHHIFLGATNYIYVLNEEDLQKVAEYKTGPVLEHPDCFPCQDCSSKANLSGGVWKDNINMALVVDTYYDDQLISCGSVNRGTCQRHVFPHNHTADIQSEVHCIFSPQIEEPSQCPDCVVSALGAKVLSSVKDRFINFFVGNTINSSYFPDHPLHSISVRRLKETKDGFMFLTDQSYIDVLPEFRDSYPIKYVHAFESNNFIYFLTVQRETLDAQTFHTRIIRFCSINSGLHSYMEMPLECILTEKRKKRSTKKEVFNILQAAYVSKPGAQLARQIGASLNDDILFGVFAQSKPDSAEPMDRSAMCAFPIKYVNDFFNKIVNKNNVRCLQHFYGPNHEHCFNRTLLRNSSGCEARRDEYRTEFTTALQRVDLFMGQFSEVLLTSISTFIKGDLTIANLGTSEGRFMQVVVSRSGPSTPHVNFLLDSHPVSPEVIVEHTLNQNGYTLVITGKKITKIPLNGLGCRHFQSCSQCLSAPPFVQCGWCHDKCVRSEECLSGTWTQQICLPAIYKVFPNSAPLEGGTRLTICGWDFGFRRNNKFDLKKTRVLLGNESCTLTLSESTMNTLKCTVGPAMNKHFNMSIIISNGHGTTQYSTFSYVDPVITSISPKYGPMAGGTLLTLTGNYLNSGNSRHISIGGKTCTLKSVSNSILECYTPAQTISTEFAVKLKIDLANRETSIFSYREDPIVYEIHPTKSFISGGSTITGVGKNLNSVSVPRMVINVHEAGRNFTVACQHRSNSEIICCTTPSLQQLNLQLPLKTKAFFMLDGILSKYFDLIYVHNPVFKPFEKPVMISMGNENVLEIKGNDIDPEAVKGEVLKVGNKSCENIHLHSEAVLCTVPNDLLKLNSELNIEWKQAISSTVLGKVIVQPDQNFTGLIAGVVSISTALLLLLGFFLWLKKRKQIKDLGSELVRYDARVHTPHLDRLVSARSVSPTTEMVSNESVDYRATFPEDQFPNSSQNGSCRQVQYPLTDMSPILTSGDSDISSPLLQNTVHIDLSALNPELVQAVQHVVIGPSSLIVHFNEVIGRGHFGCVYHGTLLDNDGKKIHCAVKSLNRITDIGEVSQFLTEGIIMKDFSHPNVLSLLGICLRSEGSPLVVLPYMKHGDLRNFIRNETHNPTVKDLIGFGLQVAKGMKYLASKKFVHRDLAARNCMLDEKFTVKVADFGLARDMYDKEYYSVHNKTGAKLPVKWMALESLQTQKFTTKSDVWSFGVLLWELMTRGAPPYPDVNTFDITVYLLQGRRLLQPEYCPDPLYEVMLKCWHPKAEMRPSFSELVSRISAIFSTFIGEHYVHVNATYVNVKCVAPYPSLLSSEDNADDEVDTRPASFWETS
Method: Colonoids were harvested and treated, as described previously. Colonoids were resuspended in engraftment medium: DPBS, 5% Matrigel, 10 µM Y27632. Prior to colonoid implantation, 7–12-week-old NSG (NOD.Cg-Prkdc^scidIl2rg^tm1Wjl/SzJ, Jackson laboratory, #005557) mice were treated with 2.5% dextran sulfate sodium (DSS) for 5 days and supplied with regular water for another day. Anesthesia was induced and maintained via a nose cone with inhaled isoflurane mixed with oxygen at concentrations of 2–4% at a flow rate of 0.5 L/min. A total of ~2.5–5 × 10^5 cell aggregates in 200 μL were injected intrarectally. The rectum was closed immediately using tissue adhesive (Santa Cruz Biotechnology, Dallas, TX, USA; #SC361931) to promote retention of the implanted colonoids. Colonoid growth was monitored weekly by small animal endoscopy with white light illumination. Imaging was performed after the implanted adenomas were clearly visible.
Mice were fasted for 4–6 h prior to in vivo imaging. Anesthesia was induced and maintained using inhaled isoflurane mixed with oxygen at concentrations of 2–4% and a flow rate of 0.5 L/min via a nose cone. The peptides were injected intravenously using a concentration of 200 μM diluted in 200 μL of PBS. A rigid small animal endoscope (Karl Storz Veterinary Endoscopy, Goleta, CA, USA) was modified to deliver NIR excitation at λex = 785 nm. This instrument was inserted into the mouse rectum at 1 h post-injection to collect in vivo fluorescence images. After 3 days to allow for target peptide clearance, the scrambled (control) peptide was administered systemically and imaged similarly. A total of n = 3 independent regions of interest (ROI) with dimensions of 20 × 20 μm^2 were identified randomly from the implanted area (target) and from adjacent normal colonic mucosa (background). The mean fluorescence intensities were used to calculate target-to-background (T/B) ratios.

colonic adenomas = test: In vivo NIR fluorescence endoscopy of spontaneous colonic adenomas in CPC;Apc mice (pharmacokinetics, T/B ratio); parameters: species or system mouse
Method: CPC;Apc mice have been genetically engineered to sporadically delete an APC gene regulated by a Cre promoter (CDX2P-9.5NLS-Cre) to spontaneously form either flat or polypoid adenomas in the distal colon.
The IRDye800-labeled target peptide (200 μM, 200 μL) was injected intravenously in Cpc;Apc mice, and fluorescence images were collected at 0, 0.5, 1, 2, 4, 6, 10, 24, 48 h post-injection using the small animal endoscope. The IRDye800-labeled scrambled (control) peptide was administered and imaged the same way 3 days after. The adjacent nontumor tissue region with an equal area of the tumor region was used for background. The time point with the highest target-to-background (T/B) ratio was selected as peak uptake.

[2] = Serum stability by analytical RP-HPLC; type: in vitro ADME; conditions: CPC;Apc mouse serum 194 μL, 30 μM peptide, 37 °C, 0, 0.5, 1, 2, 4, 8, 24 h, acetonitrile precipitation, RP-HPLC area under the peak, R^2 = 0.99; read-out: Half-life T1/2 in mouse serum (converted)
Method: Peptide stability was evaluated by incubating 6 μL of 1 mM peptide in PBS at 37 °C, resulting in a final concentration of 30 μM in 194 μL of serum obtained from a CPC;Apc mouse. Samples were precipitated by adding a double volume of acetonitrile and centrifuging for 10 min at 4 °C. RP-HPLC was performed at 0, 0.5, 1, 2, 4, 8, and 24 h. The relative peptide concentrations were determined by measuring the area under the peak (Waters, Breeze 2). The coefficient of determination R^2 was determined using Graphpad Prism 8 software (GraphPad Software, Boston, MA, USA).

cMet [3] = molecular target: T1, cMet; test: Ex vivo immunofluorescence of excised NSG mouse colon with implanted colonoids, human-to-mouse (h/m) ratio; type: binding; conditions: excised NSG colon sections, peptide 5 μM 10 min RT, antibody 1:100, mean ± SD, n = 6 colonoids
Method: Tissue sections were deparaffinized, and antigen retrieval was performed as described previously. Sections were blocked with goat serum for 30 min at RT followed by overnight incubation with 1:100 dilution of monoclonal anti-cMet antibody (Abcam; #EP1454Y) and undiluted human-specific anti-cytokeratin (CAM 5.2, BD Biosciences, Franklin Lakes, NJ, USA; #345779) at 4 °C. Thereafter, 1:500 AF488-labeled goat anti-rabbit secondary antibody (Life Technologies; #A-11029) and 1:500 AF568-labeled goat anti-mouse secondary antibody (Abcam, #ab175473) were administered. After washing with PBST, the slides were stained with the IRDye800-labeled peptides at a concentration of 5 μM for 10 min at RT. The tissue sections were then washed with PBST and mounted using a Prolong Gold reagent containing DAPI (Invitrogen; #P36931). NIR fluorescence images were collected using an inverted confocal microscope (Leica; Stellaris 5). The fluorescence intensities were quantified using custom MATLAB R2022a, and regions of saturated intensities were avoided.

cMet [4] = molecular target: T1, cMet; test: Peptide biodistribution, ex vivo NIR fluorescence of resected organs and colonoids (Pearl Trilogy); type: in vivo; conditions: NSG mice, 200 μM, 200 μL i.v., 1 hour post-injection, ex vivo λex 785 / λem 820 nm, mean ± SD
Method: Peptides (200 μM, 200 μL) were injected intravenously in NSG mice ~3 weeks after orthotopic implantation of the patient-derived colonoids. The mice were euthanized at 1 h post-injection. Major organs were resected and imaged using the Pearl Trilogy (LI-COR Biosciences) with excitation at λex = 785 nm and emission at λem = 820 nm to measure the peptide biodistribution. Fluorescence intensities were quantified from each whole tumor or organ using Image Studio 5.5.4 software (LI-COR Biosciences).

[5] = Peptide safety: necropsy histology (H&E), blood hematology and chemistry; type: in vivo, mouse; conditions: CPC;Apc mice, 200 μM, 200 μL i.v., 48 h post-injection
Method: CPC;Apc mice were euthanized at 48 hours post-injection with QQT* -IRDye800 (200 μM, 200 μL). Vital organs were excised, sectioned, and evaluated by routine histology (H&E) to evaluate for signs of acute toxicity. Whole blood was collected retro-orbitally using a capillary tube and submitted for evaluation of hematology and chemistry.

[6] = 200 μM in 200 μL i.v., mean ± SD
[7] = 200 μM, 200 μL i.v., images at 0-48 h
[8] = spontaneous adenomas, 1 hour after i.v. administration, mean ± SD

Compound: CC(C)C[C@H](NC(=O)[C@H](CO)NC(=O)[C@H](Cc1c[nH]c2ccccc12)NC(=O)[C@H](CC(N)=O)NC(=O)[C@@H](NC(=O)[C@H](CCC(N)=O)NC(=O)[C@@H](N)CCC(N)=O)[C@@H](C)O)C(=O)NCC(=O)NCC(=O)NCC(=O)N[C@@H](CO)C(=O)N[C@@H](CSC1CC(=O)N(CCNC(=O)CCCCCN2C(=CC=C3CCCC(C=CC4=[N+](CCCCS(=O)(=O)[O-])c5ccc(S(=O)(=O)O)cc5C4(C)C)=C3Oc3ccc(S(=O)(=O)O)cc3)C(C)(C)c3cc(S(=O)(=O)O)ccc32)C1=O)C(N)=O (stereo partly drawn) [QQT*-IRDye800] (H-QQTNWSLGGGSC(X1)-NH2; N-terminus and C-terminus assumed)
- Quantified fluorescence intensity (T/B ratio) in vivo, cMet^high adenoma (cMet [1]; 200 μM in 200 μL i.v., endoscope λex 785 nm, mean ± SD): 2.35 ± 0.35
- Quantified fluorescence intensity (T/B ratio) in vivo, cMet^low adenoma (cMet [1]; [6]): 1.19 ± 0.12
- Quantified fluorescence intensity (T/B ratio) in vivo, normal colonoid (cMet [1]; [6]): 1.22 ± 0.18
- Fold increase QQT*-IRDye800 versus TLQ*-IRDye800, cMet^high adenoma (cMet [1]): 1.8 fold
- Peak T/B ratio (peak uptake by the adenoma) (colonic adenomas; 200 μM, 200 μL i.v., at 1 h post-injection, mean ± SD, n = 6 mice): 2.2 ± 0.4
- Time of peak uptake (peak T/B ratio) post-injection (colonic adenomas; [7]): 1 h
- Time to clearance of signal (return to baseline) (colonic adenomas; [7]): ~ 24 h
- T/B ratio, flat lesions (colonic adenomas; [8]): 2.17±0.30
- T/B ratio, grossly visible adenomas (colonic adenomas; [8]): 1.91±0.28
- T/B ratio, small adenomas (colonic adenomas; [8]): 2.23±0.43
- half-life at 30 μM [2]: 3.6 h
- Fluorescence intensity human-to-mouse (h/m) ratio, cMet^high adenoma colonoid (cMet [3]): 7.68 ± 1.23
- Fluorescence intensity human-to-mouse (h/m) ratio, cMet^low adenoma (cMet [3]): 0.87 ± 0.31
- Fluorescence intensity human-to-mouse (h/m) ratio, normal colonoid (cMet [3]): 1.19 ± 0.39
- Uptake (quantified fluorescence) by cMet^high adenoma colonoid (cMet [4]): 1.24±0.16
- Uptake (quantified fluorescence) by cMet^low adenoma colonoid (cMet [4]): 0.23±0.08
- Uptake (quantified fluorescence) by normal human colonoid (cMet [4]): 0.18±0.04
- Acute toxicity in animal necropsy, histology (H&E) of vital organs [5]: No signs of acute toxicity
- Whole blood hematology and chemistry ([5]; n = 6 mice): No significant abnormalities

Compound: CC(C)C[C@H](NC(=O)[C@@H](N)[C@@H](C)O)C(=O)N[C@@H](CCC(N)=O)C(=O)N[C@@H](Cc1c[nH]c2ccccc12)C(=O)N[C@@H](CC(N)=O)C(=O)N[C@@H](CCC(N)=O)C(=O)N[C@@H](CO)C(=O)NCC(=O)NCC(=O)NCC(=O)N[C@@H](CO)C(=O)N[C@@H](CSC1CC(=O)N(CCNC(=O)CCCCCN2/C(=C/C=C3\CCCC(/C=C/C4=[N+](CCCCS(=O)(=O)[O-])c5ccc(S(=O)(=O)O)cc5C4(C)C)=C3Oc3ccc(S(=O)(=O)O)cc3)C(C)(C)c3cc(S(=O)(=O)O)ccc32)C1=O)C(N)=O (stereo partly drawn) [TLQ*-IRDye800, reference compound] (H-TLQWNQSGGGSC(X2)-NH2)
- Uptake (quantified fluorescence) by cMet^high adenoma colonoid (cMet [4]): 0.29±0.098
- Uptake (quantified fluorescence) by cMet^low adenoma colonoid (cMet [4]): 0.25±0.06
